Results reported in ChEMBL document CHEMBL4421730, “Synthetic compounds and derivatives as modulators of smoking or nicotine ingestion and lung cancer” (2013).
Calls of active or inactive are those of the source. The calls are words filed in the database; no cut-off is given here.

Assays:
[1] = molecular target: Acetylcholine-binding protein (Lymnaea stagnalis) (UniProt P58154); experiment: Binding affinity to Lymnaea stagnalis nicotinic acetylcholine receptor by fluorescence based assay; assay type: single protein
Cytochrome P450 2A6 [2] = molecular target: T1, Cytochrome P450 2A6 (Homo sapiens, UniProt P11509); experiment: Binding affinity to synthetic N-terminal truncated CYP2A6 (unknown origin) assessed as occurrence of type-1 binding by spectral interaction analysis
T1 sequence (P11509 whole entry): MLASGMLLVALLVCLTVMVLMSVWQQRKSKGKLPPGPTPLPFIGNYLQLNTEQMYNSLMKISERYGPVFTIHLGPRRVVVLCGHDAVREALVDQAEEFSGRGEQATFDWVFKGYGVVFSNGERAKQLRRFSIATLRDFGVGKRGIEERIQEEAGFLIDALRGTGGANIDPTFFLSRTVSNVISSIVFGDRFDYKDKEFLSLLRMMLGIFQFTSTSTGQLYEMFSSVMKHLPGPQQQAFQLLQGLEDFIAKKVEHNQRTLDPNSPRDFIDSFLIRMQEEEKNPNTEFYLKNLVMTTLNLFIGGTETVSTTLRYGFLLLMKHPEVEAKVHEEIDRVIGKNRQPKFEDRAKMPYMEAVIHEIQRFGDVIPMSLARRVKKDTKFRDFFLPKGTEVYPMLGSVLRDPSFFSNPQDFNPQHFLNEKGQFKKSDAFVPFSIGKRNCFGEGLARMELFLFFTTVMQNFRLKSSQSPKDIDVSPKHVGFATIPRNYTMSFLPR

[3] = molecular target: Acetylcholine-binding protein (Lymnaea stagnalis) (UniProt P58154); experiment: Displacement of [125I]bungarotoxin from Lymnaea stagnalis nicotinic acetylcholine receptor assessed as residual radioligand binding relative to control
CYP2A6 [4] = molecular target: T2, CYP2A6 (Homo sapiens, UniProt P11509); experiment: (§1) Binding affinity to synthetic N-terminal truncated CYP2A6 (unknown origin) assessed as effect on type-1 spectral shift lambda(min) by measuring displacement of coumarin at 100 uM preincubated with […] coumarin by spectral interaction analysis; conditions: synthetic N-terminal truncated CYP2A6, probe coumarin, […]
T2 sequence (P11509 whole entry): T1 sequence (P11509 whole entry)

CYP2A6 [5] = molecular target: T2, CYP2A6; experiment: (§2) Binding affinity to synthetic N-terminal truncated CYP2A6 (unknown origin) assessed as effect on type-1 spectral shift lambda(max) by measuring displacement of coumarin at 100 uM preincubated with […] coumarin by spectral interaction analysis; conditions: synthetic N-terminal truncated CYP2A6, probe coumarin, […]
Cytochrome P450 2A6 [6] = molecular target: T1, Cytochrome P450 2A6; experiment: Inhibition of human CYP2A6 expressed in insect cell membranes assessed as reduction in enzyme-mediated coumarin 7-hydroxylation at 400 uM in presence of glucose-6-phosphate, glucose-6-phosphate dehydrogenase and NADPH-generating system by fluorometry
Rattus norvegicus [7] = experiment: Reduction of nicotine self-administration in nicotine-addicted Wistar rat at 15 mg/kg dosed on day 50 following self-administration of nicotine across 23 hrs period each day for 49 days relative to control; assay type: ADME, organism-based; design: scale not given: the % may be the effect or the level left; conditions: in vivo
Rattus norvegicus [8] = experiment: Reduction of nicotine self-administration in nicotine-addicted Wistar rat at 15 mg/kg dosed on day 50 following self-administration of nicotine across 23 hrs period each day for 49 days and measured on day 51 and 52 relative to control; assay type: ADME, organism-based; conditions: in vivo
Cytochrome P450 2A6 [9] = molecular target: T1, Cytochrome P450 2A6; experiment: as §1; conditions: 100 µM
Cytochrome P450 2A6 [10] = molecular target: T1, Cytochrome P450 2A6; experiment: as §2; conditions: 100 µM
Rattus norvegicus [11] = experiment: Reduction of nicotine self-administration in nicotine-addicted Wistar rat at 16 mg/kg dosed on day 50 following self-administration of nicotine across 23 hrs period each day for 49 days and measured on day 51 and 52 relative to control; assay type: ADME, organism-based; conditions: in vivo

Chain of Acetylcholine-binding protein (Lymnaea stagnalis) (P58154 whole entry, the tested form may be a part): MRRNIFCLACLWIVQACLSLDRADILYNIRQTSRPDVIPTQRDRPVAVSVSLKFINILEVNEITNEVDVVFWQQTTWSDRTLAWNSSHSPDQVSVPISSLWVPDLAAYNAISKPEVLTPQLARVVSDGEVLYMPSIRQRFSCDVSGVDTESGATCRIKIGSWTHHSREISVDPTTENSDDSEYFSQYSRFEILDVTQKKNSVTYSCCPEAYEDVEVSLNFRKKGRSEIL

Structure (SMILES) | Activity [1] | Activity (Cytochrome P450 2A6 [2]) | further results
CCC1CCC(c2cccnc2)O1 (configuration not stated) | inactive |  | 
OCC1CCC(c2cccnc2)O1 (configuration not stated) | inactive |  | 
CN(C)CC#Cc1cccnc1 |  | Not Active | 
NC[C@@H]1CC[C@@H](c2cccnc2)O1 (relative stereo) | Active |  | Activity [3]: 25%
O=Cc1ccc(-c2cccnc2)o1 |  | Not Active | inhibition at 100 µM (CYP2A6 [4]): 100%; inhibition at 100 µM (CYP2A6 [5]): 100%
c1cncc(-c2cccs2)c1 | Active |  | 
c1cncc(-n2cnnn2)c1 |  |  | inhibition (INH) (Cytochrome P450 2A6 [6]): Active
Cc1cscc1-c1cccnc1 | Active |  | 
Cc1csc(-c2cccnc2)n1 |  | Active | 
SCc1ccc(-c2cccnc2)o1 |  | Not Active | inhibition at 100 µM (CYP2A6 [4]): 100%; inhibition at 100 µM (CYP2A6 [5]): 100%
Cl.Cl.c1cncc(-c2c[nH]cn2)c1 | inactive |  | Activity (Rattus norvegicus [7]): 40%; Activity (Rattus norvegicus [8]): Toxic
Cc1cn(-c2cccnc2)cn1 | Active |  | 
CC(=O)SCc1ccc(-c2cccnc2)o1 |  | Not Active | Activity (Cytochrome P450 2A6 [9]): Not Active; Activity (Cytochrome P450 2A6 [10]): Not Active
Cl.Cl.NCc1ccc(-c2cccnc2)o1 |  |  | Activity (Rattus norvegicus [11]): Toxic
Cc1ccsc1-c1cccnc1 |  | Active | 
c1ccc(-c2ccsc2)cc1 |  | Active | 
Cc1ccsc1-c1ccc(F)nc1 |  | Active | 
c1cncc(-c2cccnc2)c1 | Active |  | 
BrCC1CCC(c2cccnc2)O1 (configuration not stated) | Active |  | 
NCC1CCC(c2cccnc2)O1 (mixture of isomers) | Active |  | Activity [3]: 30%
N[C@@H]1C[C@H]1c1ccccc1.N[C@H]1C[C@@H]1c1ccccc1 | Active |  | 
Cc1cscc1-c1ccccc1 |  | Active | 
